{
  "source": "paper PMC11247654",
  "about": "(ACS Medicinal Chemistry Letters, 2024)",
  "origin": "cited, not measured here",
  "key": {"[1]": {"system": "MRSA"}, "[2]": {"conditions": "neutropenic mouse thigh infection assay"}},
  "data": [
    {"substance": "Leu10-isobactin A", "values": [
      {"measurement": "In vitro activity against MRSA", "setting": "[1]", "value": 0.5, "unit": "µg/mL"},
      {"measurement": "In vivo activity (active dose)", "setting": "[2]", "value": "3 to 10", "unit": "mg/kg"}
    ]}
  ]
}
